{"source": "patent US20110236921A1", "about": "“CELL SYSTEM” (GE HEALTHCARE UK LIMITED, priority 2010, published 2011)", "key": {"[1]": {"system": "WM115-Glu cells", "assay": "live-cell validation, cell viability (cell number) by nuclear-channel imaging, glycolytic cell line", "format": "cell-based, human", "conditions": "WM115-Glu (glucose-rich medium), 384-well live-cell plate, tested at 10.0 μM; live cells visible over full concentration range", "procedure": "(§1) Live cells are clearly visible in the full concentration range for WM115-Glu cells, but not for WM115-Gal cells (low cell density in 0.1 μM→10.0 μM antimycin A). FIG. 4b is a graphical representation of the same data.\n(§2) Antimycin A acts on respiration […] of the electron transport chain. Glucose-deprived cells (WM115-Gal) are dependent on mitochondrial respiration for ATP, and are therefore sensitive to antimycin A. In contrast, the WM115-Glu cells grown in glucose-rich media are reliant on glycolysis for ATP generation and as predicted, these cells appear resistant to antimycin A."}, "[2]": {"system": "WM115-Gal cells", "assay": "live-cell validation, cell viability (cell number) by nuclear-channel imaging, respiring cell line", "format": "cell-based, human", "conditions": "WM115-Gal (glucose-free galactose medium), 384-well live-cell plate; as low as 0.1 μM; low cell density at 0.1 μM→10.0 μM", "procedure": "as §1, §2"}}, "data": [{"substance": "antimycin A", "values": [{"measurement": "sensitivity of cells to drug (live cells visible / cell number)", "setting": "[1]", "result": "resistant"}, {"measurement": "sensitivity of cells to drug (live cells visible / cell number)", "setting": "[2]", "result": "susceptible"}]}]}
